Test results from ChEMBL document CHEMBL1201861, “Genomics of Drug Sensitity in Cancer screening data, Wellcome Trust Sanger Institute”.

Each compound was assayed on KE-37 (assay: cells). Details: Homo sapiens, KE-37.
Assay type: functional, cell-based, Homo sapiens
Description: SANGER: Inhibition of human KE-37 cell growth in a cell viability assay.

Question: How did the IC50 turn out when `COc1cc(N2CCN(C)CC2)ccc1Nc1ncc2c(n1)N(C)c1ccccc1C(=O)N2C` was run?
Answer: > 8 µM

These compounds were tested on TK-10 (assay: cells). Details: Homo sapiens, TK-10.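 Note: growth inhibition of TK-10 cells, read out in a cell viability assay.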
Assay type: functional, cell-based, Homo sapiens
Description: SANGER: Inhibition of human TK10 cell growth in a cell viability assay.

Question: With `COc1cc(N2CCN(C)CC2)ccc1Nc1ncc2c(n1)N(C)c1ccccc1C(=O)N2C` as the compound, how does the IC50 read?
Answer: > 8 µM

What follows are compounds tested on HL-60 (assay: cells). Details: Homo sapiens, HL-60.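 Note: growth inhibition of human HL-60 cells, read out with a cell viability assay.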
Assay type: functional, cell-based, Homo sapiens
Description: SANGER: Inhibition of human HL-60 cell growth in a cell viability assay.

Question: With `COc1cc(N2CCN(C)CC2)ccc1Nc1ncc2c(n1)N(C)c1ccccc1C(=O)N2C` as the compound, how does the IC50 read?
Answer: 5.14 µM

These compounds were tested on NCI-H1838 (assay: cells). Details: Homo sapiens, NCI-H1838.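 Note: growth inhibition of NCI-H1838 cells, determined with a cell viability readout.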
Assay type: functional, cell-based, Homo sapiens
Description: SANGER: Inhibition of human NCI-H1838 cell growth in a cell viability assay.

Question: How did the IC50 turn out when `COc1cc(N2CCN(C)CC2)ccc1Nc1ncc2c(n1)N(C)c1ccccc1C(=O)N2C` was run?
Answer: > 8 µM

What follows are compounds tested on KURAMOCHI (assay: cells). Details: Homo sapiens, KURAMOCHI.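 Note: growth inhibition of KURAMOCHI cells, read out with a cell viability assay.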
Assay type: functional, cell-based, Homo sapiens
Description: SANGER: Inhibition of human KURAMOCHI cell growth in a cell viability assay.

Question: For `COc1cc(N2CCN(C)CC2)ccc1Nc1ncc2c(n1)N(C)c1ccccc1C(=O)N2C`, which IC50 is on record?
Answer: > 8 µM

What follows are compounds tested on IST-MES1 (assay: cells). Details: Homo sapiens, IST-MES1.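 Note: growth inhibition of IST-MES1 cells, measured with a cell viability assay.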
Assay type: functional, cell-based, Homo sapiens
Description: SANGER: Inhibition of human IST-MES1 cell growth in a cell viability assay.

Question: How did the IC50 turn out when `COc1cc(N2CCN(C)CC2)ccc1Nc1ncc2c(n1)N(C)c1ccccc1C(=O)N2C` was run?
Answer: > 8 µM

Each compound was assayed on GI-1 (assay: cells). Details: Homo sapiens, GI-1.
Assay type: functional, cell-based, Homo sapiens
Description: SANGER: Inhibition of human GI-1 cell growth in a cell viability assay.

Question: How did the IC50 turn out when `COc1cc(N2CCN(C)CC2)ccc1Nc1ncc2c(n1)N(C)c1ccccc1C(=O)N2C` was run?
Answer: > 8 µM

These compounds were tested on LU-134-A (assay: cells). Details: Homo sapiens, LU-134-A.
Assay type: functional, cell-based, Homo sapiens
Description: SANGER: Inhibition of human LU-134-A cell growth in a cell viability assay.

Question: How did the IC50 turn out when `COc1cc(N2CCN(C)CC2)ccc1Nc1ncc2c(n1)N(C)c1ccccc1C(=O)N2C` was run?
Answer: > 8 µM

These compounds were tested on KG-1 (assay: cells). Details: Homo sapiens, KG-1.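 Note: growth inhibition of KG-1 cells, read out by a cell viability assay.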
Assay type: functional, cell-based, Homo sapiens
Description: SANGER: Inhibition of human KG-1 cell growth in a cell viability assay.

Question: How did the IC50 turn out when `COc1cc(N2CCN(C)CC2)ccc1Nc1ncc2c(n1)N(C)c1ccccc1C(=O)N2C` was run?
Answer: > 8 µM

What follows are compounds tested on COLO-320-HSR (assay: cells). Details: Homo sapiens, COLO-320-HSR.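 Note: growth inhibition of COLO-320-HSR cells, determined with a cell viability assay.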
Assay type: functional, cell-based, Homo sapiens
Description: SANGER: Inhibition of human COLO-320-HSR cell growth in a cell viability assay.

Question: For `COc1cc(N2CCN(C)CC2)ccc1Nc1ncc2c(n1)N(C)c1ccccc1C(=O)N2C`, which IC50 is on record?
Answer: > 8 µM

These compounds were tested on MC116 (assay: cells). Details: Homo sapiens, MC116.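 Note: growth inhibition of MC116 cells, read out with a cell viability assay.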
Assay type: functional, cell-based, Homo sapiens
Description: SANGER: Inhibition of human MC116 cell growth in a cell viability assay.

Question: For `COc1cc(N2CCN(C)CC2)ccc1Nc1ncc2c(n1)N(C)c1ccccc1C(=O)N2C`, which IC50 is on record?
Answer: 7.22 µM

These compounds were tested on MEG-01 (assay: cells). Details: Homo sapiens, MEG-01.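 Note: growth inhibition of MEG-01 cells, read out by a cell viability assay.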
Assay type: functional, cell-based, Homo sapiens
Description: SANGER: Inhibition of human MEG-01 cell growth in a cell viability assay.

Question: With `COc1cc(N2CCN(C)CC2)ccc1Nc1ncc2c(n1)N(C)c1ccccc1C(=O)N2C` as the compound, how does the IC50 read?
Answer: 4.76 µM

Each compound was assayed on COR-L88 (assay: cells). Details: Homo sapiens, COR-L88.
Assay type: functional, cell-based, Homo sapiens
Description: SANGER: Inhibition of human COR-L88 cell growth in a cell viability assay.

Question: For `COc1cc(N2CCN(C)CC2)ccc1Nc1ncc2c(n1)N(C)c1ccccc1C(=O)N2C`, which IC50 is on record?
Answer: > 8 µM

Each compound was assayed on LB373-MEL-D (assay: cells). Details: Homo sapiens, LB373-MEL-D.
Assay type: functional, cell-based, Homo sapiens
Description: SANGER: Inhibition of human LB373-MEL-D cell growth in a cell viability assay.

Question: With `COc1cc(N2CCN(C)CC2)ccc1Nc1ncc2c(n1)N(C)c1ccccc1C(=O)N2C` as the compound, how does the IC50 read?
Answer: > 8 µM

What follows are compounds tested on KINGS-1 (assay: cells). Details: Homo sapiens, KINGS-1.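 Note: cell viability assay measuring suppression of KINGS-1 cell growth.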
Assay type: functional, cell-based, Homo sapiens
Description: SANGER: Inhibition of human KINGS-1 cell growth in a cell viability assay.

Question: Which IC50 does the source give for `COc1cc(N2CCN(C)CC2)ccc1Nc1ncc2c(n1)N(C)c1ccccc1C(=O)N2C` here?
Answer: > 8 µM

What follows are compounds tested on Mo (assay: cells). Details: Homo sapiens, Mo.
Assay type: functional, cell-based, Homo sapiens
Description: SANGER: Inhibition of human Mo-T cell growth in a cell viability assay.

Question: How did the IC50 turn out when `COc1cc(N2CCN(C)CC2)ccc1Nc1ncc2c(n1)N(C)c1ccccc1C(=O)N2C` was run?
Answer: > 8 µM

The compounds below were run on NCI-H1155 (assay: cells). Details: Homo sapiens, NCI-H1155.
Assay type: functional, cell-based, Homo sapiens
Description: SANGER: Inhibition of human NCI-H1155 cell growth in a cell viability assay.

Question: `COc1cc(N2CCN(C)CC2)ccc1Nc1ncc2c(n1)N(C)c1ccccc1C(=O)N2C` was tested. Which IC50 did it give?
Answer: > 8 µM

The compounds below were run on SF-539 (assay: cells). Details: Homo sapiens, SF-539.
Assay type: functional, cell-based, Homo sapiens
Description: SANGER: Inhibition of human SF539 cell growth in a cell viability assay.

Question: Which IC50 does the source give for `COc1cc(N2CCN(C)CC2)ccc1Nc1ncc2c(n1)N(C)c1ccccc1C(=O)N2C` here?
Answer: > 8 µM

These compounds were tested on MLMA (assay: cells). Details: Homo sapiens, MLMA.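 Note: growth inhibition of MLMA cells (human), determined through a cell viability readout.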
Assay type: functional, cell-based, Homo sapiens
Description: SANGER: Inhibition of human MLMA cell growth in a cell viability assay.

Question: How did the IC50 turn out when `COc1cc(N2CCN(C)CC2)ccc1Nc1ncc2c(n1)N(C)c1ccccc1C(=O)N2C` was run?
Answer: > 8 µM

Each compound was assayed on HD-MY-Z (assay: cells). Details: Homo sapiens, HD-MY-Z.
Assay type: functional, cell-based, Homo sapiens
Description: SANGER: Inhibition of human HD-MY-Z cell growth in a cell viability assay.

Question: How did the IC50 turn out when `COc1cc(N2CCN(C)CC2)ccc1Nc1ncc2c(n1)N(C)c1ccccc1C(=O)N2C` was run?
Answer: > 8 µM

What follows are compounds tested on EW-16 (assay: cells). Details: Homo sapiens, EW-16.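 Note: growth inhibition of human EW-16 cells, read out as cell viability.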
Assay type: functional, cell-based, Homo sapiens
Description: SANGER: Inhibition of human EW-16 cell growth in a cell viability assay.

Question: How did the IC50 turn out when `COc1cc(N2CCN(C)CC2)ccc1Nc1ncc2c(n1)N(C)c1ccccc1C(=O)N2C` was run?
Answer: > 8 µM

These compounds were tested on RCC10RGB (assay: cells). Details: Homo sapiens, RCC10RGB.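 Note: growth inhibition of human RCC10RGB cells, read out by a cell viability assay.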
Assay type: functional, cell-based, Homo sapiens
Description: SANGER: Inhibition of human RCC10RGB cell growth in a cell viability assay.

Question: How did the IC50 turn out when `COc1cc(N2CCN(C)CC2)ccc1Nc1ncc2c(n1)N(C)c1ccccc1C(=O)N2C` was run?
Answer: > 8 µM

What follows are compounds tested on DJM-1 (assay: cells). Details: Homo sapiens, DJM-1.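 Note: growth inhibition of human DJM-1 cells, read out by a cell viability assay.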
Assay type: functional, cell-based, Homo sapiens
Description: SANGER: Inhibition of human DJM-1 cell growth in a cell viability assay.

Question: Which IC50 does the source give for `COc1cc(N2CCN(C)CC2)ccc1Nc1ncc2c(n1)N(C)c1ccccc1C(=O)N2C` here?
Answer: > 8 µM

Each compound was assayed on KM-H2 (assay: cells). Details: Homo sapiens, KM-H2.
Assay type: functional, cell-based, Homo sapiens
Description: SANGER: Inhibition of human KM-H2 cell growth in a cell viability assay.

Question: Which IC50 does the source give for `COc1cc(N2CCN(C)CC2)ccc1Nc1ncc2c(n1)N(C)c1ccccc1C(=O)N2C` here?
Answer: > 8 µM

The compounds below were run on K562 (assay: cells). Details: Homo sapiens, K562.
Assay type: functional, cell-based, Homo sapiens
Description: SANGER: Inhibition of human K-562 cell growth in a cell viability assay.

Question: `COc1cc(N2CCN(C)CC2)ccc1Nc1ncc2c(n1)N(C)c1ccccc1C(=O)N2C` was tested. Which IC50 did it give?
Answer: > 8 µM

What follows are compounds tested on KS-1 (assay: cells). Details: Homo sapiens, KS-1.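 Note: growth inhibition of KS-1 cells, read out with a cell viability assay.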
Assay type: functional, cell-based, Homo sapiens
Description: SANGER: Inhibition of human KS-1 cell growth in a cell viability assay.

Question: `COc1cc(N2CCN(C)CC2)ccc1Nc1ncc2c(n1)N(C)c1ccccc1C(=O)N2C` was tested. Which IC50 did it give?
Answer: 5.38 µM

What follows are compounds tested on MMAC-SF (assay: cells). Details: Homo sapiens, MMAC-SF.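 Note: growth inhibition of human MMAC-SF cells, read out with a cell viability assay.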
Assay type: functional, cell-based, Homo sapiens
Description: SANGER: Inhibition of human MMAC-SF cell growth in a cell viability assay.

Question: `COc1cc(N2CCN(C)CC2)ccc1Nc1ncc2c(n1)N(C)c1ccccc1C(=O)N2C` was tested. Which IC50 did it give?
Answer: > 8 µM

Each compound was assayed on LU-139 (assay: cells). Details: Homo sapiens, LU-139.
Assay type: functional, cell-based, Homo sapiens
Description: SANGER: Inhibition of human LU-139 cell growth in a cell viability assay.

Question: Which IC50 does the source give for `COc1cc(N2CCN(C)CC2)ccc1Nc1ncc2c(n1)N(C)c1ccccc1C(=O)N2C` here?
Answer: 6.86 µM

The compounds below were run on A388 (assay: cells). Details: Homo sapiens, A388.
Assay type: functional, cell-based, Homo sapiens
Description: SANGER: Inhibition of human A388 cell growth in a cell viability assay.

Question: For `COc1cc(N2CCN(C)CC2)ccc1Nc1ncc2c(n1)N(C)c1ccccc1C(=O)N2C`, which IC50 is on record?
Answer: 6.57 µM

Each compound was assayed on HCC1187 (assay: cells). Details: Homo sapiens, HCC1187.
Assay type: functional, cell-based, Homo sapiens
Description: SANGER: Inhibition of human HCC1187 cell growth in a cell viability assay.

Question: How did the IC50 turn out when `COc1cc(N2CCN(C)CC2)ccc1Nc1ncc2c(n1)N(C)c1ccccc1C(=O)N2C` was run?
Answer: > 8 µM

The compounds below were run on NTERA-2-cl-D1 (assay: cells). Details: Homo sapiens, NTERA-2-cl-D1.
Assay type: functional, cell-based, Homo sapiens
Description: SANGER: Inhibition of human NTERA-S-cl-D1 cell growth in a cell viability assay.

Question: Which IC50 does the source give for `COc1cc(N2CCN(C)CC2)ccc1Nc1ncc2c(n1)N(C)c1ccccc1C(=O)N2C` here?
Answer: 4.56 µM

Each compound was assayed on NCI-H1770 (assay: cells). Details: Homo sapiens, NCI-H1770.
Assay type: functional, cell-based, Homo sapiens
Description: SANGER: Inhibition of human NCI-H1770 cell growth in a cell viability assay.

Question: Which IC50 does the source give for `COc1cc(N2CCN(C)CC2)ccc1Nc1ncc2c(n1)N(C)c1ccccc1C(=O)N2C` here?
Answer: 4.74 µM

What follows are compounds tested on PSN1 (assay: cells). Details: Homo sapiens, PSN1.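 Note: suppression of growth of human PSN1 cells, read out by a cell viability assay.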
Assay type: functional, cell-based, Homo sapiens
Description: SANGER: Inhibition of human PSN1 cell growth in a cell viability assay.

Question: With `COc1cc(N2CCN(C)CC2)ccc1Nc1ncc2c(n1)N(C)c1ccccc1C(=O)N2C` as the compound, how does the IC50 read?
Answer: > 8 µM

The compounds below were run on LB2241-RCC (assay: cells). Details: Homo sapiens, LB2241-RCC.
Assay type: functional, cell-based, Homo sapiens
Description: SANGER: Inhibition of human LB2241-RCC cell growth in a cell viability assay.

Question: How did the IC50 turn out when `COc1cc(N2CCN(C)CC2)ccc1Nc1ncc2c(n1)N(C)c1ccccc1C(=O)N2C` was run?
Answer: > 8 µM

These compounds were tested on NCI-H23 (assay: cells). Details: Homo sapiens, NCI-H23.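 Note: cell viability assay measuring growth inhibition of NCI-H23 cells.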
Assay type: functional, cell-based, Homo sapiens
Description: SANGER: Inhibition of human NCI-H23 cell growth in a cell viability assay.

Question: For `COc1cc(N2CCN(C)CC2)ccc1Nc1ncc2c(n1)N(C)c1ccccc1C(=O)N2C`, which IC50 is on record?
Answer: > 8 µM

The compounds below were run on A4-Fuk (assay: cells). Details: Homo sapiens, A4-Fuk.
Assay type: functional, cell-based, Homo sapiens
Description: SANGER: Inhibition of human A4-Fuk cell growth in a cell viability assay.

Question: `COc1cc(N2CCN(C)CC2)ccc1Nc1ncc2c(n1)N(C)c1ccccc1C(=O)N2C` was tested. Which IC50 did it give?
Answer: 3.86 µM

What follows are compounds tested on RKO (assay: cells). Details: Homo sapiens, RKO.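 Note: growth inhibition of human RKO cells, read out with a cell viability assay.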
Assay type: functional, cell-based, Homo sapiens
Description: SANGER: Inhibition of human RKO cell growth in a cell viability assay.

Question: With `COc1cc(N2CCN(C)CC2)ccc1Nc1ncc2c(n1)N(C)c1ccccc1C(=O)N2C` as the compound, how does the IC50 read?
Answer: 4.68 µM

The compounds below were run on NCI-H209 (assay: cells). Details: Homo sapiens, NCI-H209.
Assay type: functional, cell-based, Homo sapiens
Description: SANGER: Inhibition of human NCI-H209 cell growth in a cell viability assay.

Question: Which IC50 does the source give for `COc1cc(N2CCN(C)CC2)ccc1Nc1ncc2c(n1)N(C)c1ccccc1C(=O)N2C` here?
Answer: > 8 µM

What follows are compounds tested on ES5 (assay: cells). Details: Homo sapiens, ES5.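 Note: growth inhibition of human ES5 cells, read out by a cell viability assay.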
Assay type: functional, cell-based, Homo sapiens
Description: SANGER: Inhibition of human ES5 cell growth in a cell viability assay.

Question: With `COc1cc(N2CCN(C)CC2)ccc1Nc1ncc2c(n1)N(C)c1ccccc1C(=O)N2C` as the compound, how does the IC50 read?
Answer: > 8 µM

These compounds were tested on NOS-1 (assay: cells). Details: Homo sapiens, NOS-1.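 Note: growth inhibition of the human NOS-1 cell line, read out with a cell viability assay.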
Assay type: functional, cell-based, Homo sapiens
Description: SANGER: Inhibition of human NOS-1 cell growth in a cell viability assay.

Question: With `COc1cc(N2CCN(C)CC2)ccc1Nc1ncc2c(n1)N(C)c1ccccc1C(=O)N2C` as the compound, how does the IC50 read?
Answer: 3.57 µM

These compounds were tested on no-10 (assay: cells). Details: Homo sapiens.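 Note: growth inhibition of no-10 cells, read out with a cell viability assay.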
Assay type: functional, cell-based, Homo sapiens
Description: SANGER: Inhibition of human no-10 cell growth in a cell viability assay.

Question: With `COc1cc(N2CCN(C)CC2)ccc1Nc1ncc2c(n1)N(C)c1ccccc1C(=O)N2C` as the compound, how does the IC50 read?
Answer: > 8 µM

The compounds below were run on EKVX (assay: cells). Details: Homo sapiens, EKVX.
Assay type: functional, cell-based, Homo sapiens
Description: SANGER: Inhibition of human EKVX cell growth in a cell viability assay.

Question: How did the IC50 turn out when `COc1cc(N2CCN(C)CC2)ccc1Nc1ncc2c(n1)N(C)c1ccccc1C(=O)N2C` was run?
Answer: > 8 µM

These compounds were tested on SW 954 (assay: cells). Details: Homo sapiens, SW 954.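 Note: growth inhibition of SW954 human cancer cells, read out as cell viability.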
Assay type: functional, cell-based, Homo sapiens
Description: SANGER: Inhibition of human SW954 cell growth in a cell viability assay.

Question: For `COc1cc(N2CCN(C)CC2)ccc1Nc1ncc2c(n1)N(C)c1ccccc1C(=O)N2C`, which IC50 is on record?
Answer: 4.85 µM

The compounds below were run on CW-2 (assay: cells). Details: Homo sapiens, CW-2.
Assay type: functional, cell-based, Homo sapiens
Description: SANGER: Inhibition of human CW-2 cell growth in a cell viability assay.

Question: For `COc1cc(N2CCN(C)CC2)ccc1Nc1ncc2c(n1)N(C)c1ccccc1C(=O)N2C`, which IC50 is on record?
Answer: > 8 µM

What follows are compounds tested on ES8 (assay: cells). Details: Homo sapiens, ES8.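 Note: growth inhibition of human ES8 cells, read out with a cell viability assay.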
Assay type: functional, cell-based, Homo sapiens
Description: SANGER: Inhibition of human ES8 cell growth in a cell viability assay.

Question: `COc1cc(N2CCN(C)CC2)ccc1Nc1ncc2c(n1)N(C)c1ccccc1C(=O)N2C` was tested. Which IC50 did it give?
Answer: 4.16 µM

What follows are compounds tested on SHP77 (assay: cells). Details: Homo sapiens, SHP77.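 Note: growth inhibition of human SHP-77 cells measured by a cell viability assay.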
Assay type: functional, cell-based, Homo sapiens, SHP-77
Description: SANGER: Inhibition of human SHP-77 cell growth in a cell viability assay.

Question: For `COc1cc(N2CCN(C)CC2)ccc1Nc1ncc2c(n1)N(C)c1ccccc1C(=O)N2C`, which IC50 is on record?
Answer: > 8 µM

The compounds below were run on MOLT-4 (assay: cells). Details: Homo sapiens, MOLT-4.
Assay type: functional, cell-based, Homo sapiens
Description: SANGER: Inhibition of human MOLT-4 cell growth in a cell viability assay.

Question: For `COc1cc(N2CCN(C)CC2)ccc1Nc1ncc2c(n1)N(C)c1ccccc1C(=O)N2C`, which IC50 is on record?
Answer: > 8 µM

The compounds below were run on OS-RC-2 (assay: cells). Details: Homo sapiens, OS-RC-2.
Assay type: functional, cell-based, Homo sapiens
Description: SANGER: Inhibition of human OS-RC-2 cell growth in a cell viability assay.

Question: With `COc1cc(N2CCN(C)CC2)ccc1Nc1ncc2c(n1)N(C)c1ccccc1C(=O)N2C` as the compound, how does the IC50 read?
Answer: > 8 µM
